{"source": "patent US20060166900A1", "about": "“Salt of morphine-6-glucuronide” (CeNeS Limited, priority 2002, published 2006)", "format_in_all_cases": "physicochemical", "key": {"[1]": {"assay": "Colour of solution by visible spectrophotometry on storage (Example 3)", "details": "5% w/v solution in water", "description": "Colour of solution by UV spectrophotometry.\n(§1) Each test material was stored between 2-8*C prior to placing on stability. Each material was sub-divided into 900 mg aliquots, transferred to brown opaque HDPE plastic bottles and flushed with Argon prior to sealing. Sufficient samples were provided for each time point as well as spares for each storage condition. The samples were placed in appropriate incubators previously commissioned at storage conditions 25° C./60% RH, 40° C./75% RH and 60° C.\nColour by Visible Spectrophotometry\nA 5% w/v solution of test material was prepared in water and the absorbance measured at 420 nm in a 1 cm silica cell using a Unicam UV4 Visible/UV spectrophotometer."}, "[2]": {"assay": "Visual appearance on storage (Example 3)", "description": "as §1\nThe samples were stored for analysis according to the following table: […]"}, "[3]": {"assay": "Water content by Karl Fisher analysis on storage (Example 3)", "description": "Water content (% w/w) by Karl Fisher analysis\nas §1\nWater Content by Karl Fisher Analysis\nWater content was determined in duplicate on an aliquot of equilibrated material (approximately 100 mg) using a Tritrino 720 KFS Titrator."}, "[4]": {"assay": "Stability indicating HPLC assay and related substances on storage (Example 3)", "description": "Assay (% w/w) and related substances determination\nas §1\nTesting Procedures Test for Identity Content and Impurities\nTesting was performed in duplicate (2×25 mg) in accordance with a stability indicating HPLC assay method. The assay results were reported as M6G as is, M6G as the anhydrous, solvent free material and the anhydrous solvent free material corrected for the salt form using the relevant conversion factor."}}}
{"compound": "CN1CCC23c4c5ccc(O)c4OC2C(OC2OC(C(=O)O)C(O)C(O)C2O)C=CC3C1C5.CN1CCC23c4c5ccc(O)c4OC2C(OC2OC(C(=O)O)C(O)C(O)C2O)C=CC3C1C5.O=C(O)C=CC(=O)O", "note": "(stereo not shown) [Morphine-6-glucuronide maleate]", "values": [{"measurement": "Colour", "setting": "[1]; 1 month, 25° C./60% RH", "result": 0.084, "unit": "Abs@420 nm"}, {"measurement": "Colour", "setting": "[1]; 1 month, 40° C./75% RH", "result": 0.297, "unit": "Abs@420 nm"}, {"measurement": "Colour", "setting": "[1]; 1 month, 60° C.", "result": 0.739, "unit": "Abs@420 nm"}, {"measurement": "Colour", "setting": "[1]; 3 months, 25° C./60% RH", "result": 0.209, "unit": "Abs@420 nm"}, {"measurement": "Colour", "setting": "[1]; 3 months, 40° C./75% RH", "result": 0.879, "unit": "Abs@420 nm"}, {"measurement": "Colour", "setting": "[1]; Initial", "result": 0.017, "unit": "Abs@420 nm"}, {"measurement": "Appearance", "setting": "[2]; 1 month, 25° C./60% RH", "result": "White crystalline powder"}, {"measurement": "Appearance", "setting": "[2]; 1 month, 40° C./75% RH", "result": "Pale yellow crystalline powder"}, {"measurement": "Appearance", "setting": "[2]; 1 month, 60° C.", "result": "Yellow crystalline powder"}, {"measurement": "Appearance", "setting": "[2]; 3 months, 25° C./60% RH", "result": "Pale yellow crystalline powder"}, {"measurement": "Appearance", "setting": "[2]; 3 months, 40° C./75% RH", "result": "Yellow crystalline powder"}, {"measurement": "Appearance", "setting": "[2]; Initial", "result": "White crystalline powder"}, {"measurement": "Moisture", "setting": "[3]; 1 month, 25° C./60% RH", "result": 7.53, "unit": "% w/w"}, {"measurement": "Moisture", "setting": "[3]; 1 month, 40° C./75% RH", "result": 7.60, "unit": "% w/w"}, {"measurement": "Moisture", "setting": "[3]; 1 month, 60° C.", "result": 5.01, "unit": "% w/w"}, {"measurement": "Moisture", "setting": "[3]; 3 months, 25° C./60% RH", "result": 7.14, "unit": "% w/w"}, {"measurement": "Moisture", "setting": "[3]; 3 months, 40° C./75% RH", "result": 9.24, "unit": "% w/w"}, {"measurement": "Moisture", "setting": "[3]; Initial", "result": 6.14, "unit": "% w/w"}, {"measurement": "Known Related Substances HN33177", "setting": "[4]; 1 month, 25° C./60% RH", "result": 0.76, "unit": "%"}, {"measurement": "Known Related Substances HN67003", "setting": "[4]; 1 month, 25° C./60% RH", "result": 0.17, "unit": "%"}, {"measurement": "Known Related Substances HN75083", "setting": "[4]; 1 month, 25° C./60% RH", "result": 0.05, "unit": "%"}, {"measurement": "M6G Assay, Anhydrous basis", "setting": "[4]; 1 month, 25° C./60% RH", "result": 86.66, "unit": "% w/w"}, {"measurement": "M6G Assay, As is basis", "setting": "[4]; 1 month, 25° C./60% RH", "result": 80.27, "unit": "% w/w"}, {"measurement": "M6G Assay, Corrected for the salt form", "setting": "[4]; 1 month, 25° C./60% RH", "result": 97.56, "unit": "% w/w"}, {"measurement": "Total Known", "setting": "[4]; 1 month, 25° C./60% RH", "result": 0.98, "unit": "%"}, {"measurement": "Total Related Substances", "setting": "[4]; 1 month, 25° C./60% RH", "result": 1.39, "unit": "%"}, {"measurement": "Total Unknown", "setting": "[4]; 1 month, 25° C./60% RH", "result": 0.41, "unit": "%"}, {"measurement": "Known Related Substances HN33177", "setting": "[4]; 1 month, 40° C./75% RH", "result": 0.65, "unit": "%"}, {"measurement": "Known Related Substances HN67003", "setting": "[4]; 1 month, 40° C./75% RH", "result": 0.94, "unit": "%"}, {"measurement": "Known Related Substances HN75076", "setting": "[4]; 1 month, 40° C./75% RH", "result": 0.03, "unit": "%"}, {"measurement": "Known Related Substances HN75083", "setting": "[4]; 1 month, 40° C./75% RH", "result": 0.03, "unit": "%"}, {"measurement": "Known Related Substances Morphine", "setting": "[4]; 1 month, 40° C./75% RH", "result": 0.12, "unit": "%"}, {"measurement": "M6G Assay, Anhydrous basis", "setting": "[4]; 1 month, 40° C./75% RH", "result": 83.28, "unit": "% w/w"}, {"measurement": "M6G Assay, As is basis", "setting": "[4]; 1 month, 40° C./75% RH", "result": 77.07, "unit": "% w/w"}, {"measurement": "M6G Assay, Corrected for the salt form", "setting": "[4]; 1 month, 40° C./75% RH", "result": 93.75, "unit": "% w/w"}, {"measurement": "Total Known", "setting": "[4]; 1 month, 40° C./75% RH", "result": 1.77, "unit": "%"}, {"measurement": "Total Related Substances", "setting": "[4]; 1 month, 40° C./75% RH", "result": 4.80, "unit": "%"}, {"measurement": "Total Unknown", "setting": "[4]; 1 month, 40° C./75% RH", "result": 3.03, "unit": "%"}, {"measurement": "Known Related Substances HN33177", "setting": "[4]; 1 month, 60° C.", "result": 0.50, "unit": "%"}, {"measurement": "Known Related Substances HN67003", "setting": "[4]; 1 month, 60° C.", "result": 1.20, "unit": "%"}, {"measurement": "Known Related Substances HN75076", "setting": "[4]; 1 month, 60° C.", "result": 0.14, "unit": "%"}, {"measurement": "Known Related Substances HN75083", "setting": "[4]; 1 month, 60° C.", "result": 0.02, "unit": "%"}, {"measurement": "Known Related Substances Morphine", "setting": "[4]; 1 month, 60° C.", "result": 0.32, "unit": "%"}, {"measurement": "M6G Assay, Anhydrous basis", "setting": "[4]; 1 month, 60° C.", "result": 80.36, "unit": "% w/w"}, {"measurement": "M6G Assay, As is basis", "setting": "[4]; 1 month, 60° C.", "result": 76.46, "unit": "% w/w"}, {"measurement": "M6G Assay, Corrected for the salt form", "setting": "[4]; 1 month, 60° C.", "result": 90.47, "unit": "% w/w"}, {"measurement": "Total Known", "setting": "[4]; 1 month, 60° C.", "result": 2.18, "unit": "%"}, {"measurement": "Total Related Substances", "setting": "[4]; 1 month, 60° C.", "result": 6.09, "unit": "%"}, {"measurement": "Total Unknown", "setting": "[4]; 1 month, 60° C.", "result": 3.91, "unit": "%"}, {"measurement": "Known Related Substances HN33177", "setting": "[4]; 3 months, 25° C./60% RH", "result": 0.52, "unit": "%"}, {"measurement": "Known Related Substances HN67003", "setting": "[4]; 3 months, 25° C./60% RH", "result": 0.58, "unit": "%"}, {"measurement": "Known Related Substances HN75083", "setting": "[4]; 3 months, 25° C./60% RH", "result": 0.06, "unit": "%"}, {"measurement": "Known Related Substances Morphine", "setting": "[4]; 3 months, 25° C./60% RH", "result": 0.04, "unit": "%"}, {"measurement": "M6G Assay, Anhydrous basis", "setting": "[4]; 3 months, 25° C./60% RH", "result": 85.11, "unit": "% w/w"}, {"measurement": "M6G Assay, As is basis", "setting": "[4]; 3 months, 25° C./60% RH", "result": 80.04, "unit": "% w/w"}, {"measurement": "M6G Assay, Corrected for the salt form", "setting": "[4]; 3 months, 25° C./60% RH", "result": 95.81, "unit": "% w/w"}, {"measurement": "Total Known", "setting": "[4]; 3 months, 25° C./60% RH", "result": 1.20, "unit": "%"}, {"measurement": "Total Related Substances", "setting": "[4]; 3 months, 25° C./60% RH", "result": 3.55, "unit": "%"}, {"measurement": "Total Unknown", "setting": "[4]; 3 months, 25° C./60% RH", "result": 2.35, "unit": "%"}, {"measurement": "Known Related Substances HN33177", "setting": "[4]; 3 months, 40° C./75% RH", "result": 0.50, "unit": "%"}, {"measurement": "Known Related Substances HN67003", "setting": "[4]; 3 months, 40° C./75% RH", "result": 1.68, "unit": "%"}, {"measurement": "Known Related Substances HN75076", "setting": "[4]; 3 months, 40° C./75% RH", "result": 0.40, "unit": "%"}, {"measurement": "Known Related Substances Morphine", "setting": "[4]; 3 months, 40° C./75% RH", "result": 0.43, "unit": "%"}, {"measurement": "M6G Assay, Anhydrous basis", "setting": "[4]; 3 months, 40° C./75% RH", "result": 78.73, "unit": "% w/w"}, {"measurement": "M6G Assay, As is basis", "setting": "[4]; 3 months, 40° C./75% RH", "result": 72.37, "unit": "% w/w"}, {"measurement": "M6G Assay, Corrected for the salt form", "setting": "[4]; 3 months, 40° C./75% RH", "result": 88.63, "unit": "% w/w"}, {"measurement": "Total Known", "setting": "[4]; 3 months, 40° C./75% RH", "result": 3.01, "unit": "%"}, {"measurement": "Total Related Substances", "setting": "[4]; 3 months, 40° C./75% RH", "result": 9.94, "unit": "%"}, {"measurement": "Total Unknown", "setting": "[4]; 3 months, 40° C./75% RH", "result": 6.93, "unit": "%"}, {"measurement": "drop in assay compared to the initial values", "setting": "[4]; 3 months, 40° C./75% RH", "result": "around 10%"}, {"measurement": "Known Related Substances HN33177", "setting": "[4]; Initial", "result": 0.76, "unit": "%"}, {"measurement": "Known Related Substances HN67003", "setting": "[4]; Initial", "result": 0.04, "unit": "%"}, {"measurement": "Known Related Substances HN75083", "setting": "[4]; Initial", "result": 0.05, "unit": "%"}, {"measurement": "M6G Assay, Anhydrous basis", "setting": "[4]; Initial", "result": 88.28, "unit": "% w/w"}, {"measurement": "M6G Assay, As is basis", "setting": "[4]; Initial", "result": 83.61, "unit": "% w/w"}, {"measurement": "M6G Assay, Corrected for the salt form", "setting": "[4]; Initial", "result": 99.40, "unit": "% w/w"}, {"measurement": "Total Known", "setting": "[4]; Initial", "result": 0.85, "unit": "%"}, {"measurement": "Total Related Substances", "setting": "[4]; Initial", "result": 0.85, "unit": "%"}, {"measurement": "Total Unknown", "setting": "[4]; Initial", "result": 0.00, "unit": "%"}]}
